Patent US10786521B2, “Methods and compositions for treatment of COPD diseases” (Shanghai KE Pharmaceutical Co., LTD, priority 2014, dated 2020)

System: airway smooth muscle (bronchial rings)
Experiment: Relaxation of evoked isometric force of bronchial rings (wire myograph)
Type: cell-based, mice
Method: Briefly, the entire respiratory tree was rapidly removed and immersed in Krebs-Henseleit buffer (118.1 mM NaCl, 4.7 mM KCl, 1.2 mM MgSO4, 2.5 mM CaCl2, 1.0 mM NaH2PO4, 25 mM NaHCO3 and 11.1 mM glucose, pH 7.4). Bronchial rings, 2 mm in length, were isolated from pulmonary bronchi using a dissection microscope. Then the bronchial segments were mounted in a small-vessel wire myograph chamber (Danish Myo Technology, Aarhus, Denmark) by threading on two steel wires (40 μm in diameter) secured to two supports. One support was attached to a force transducer for measurements of isometric force development, and the other was attached to a micrometer controlling ring circumference. The preparation was kept in the chamber, immersed in 5 ml of Krebs-Henseleit solution, bubbled with 5% CO2 and 95% O2 and maintained at 37° C. The initial isometric tension of bronchial ring was set to 0 mN prior to equilibration for 20 min. The bronchial ring was then stretched in order to keep the force at 5 mN followed by an additional equilibration for 20 min. The isometric forces produced by bronchial ring was recorded with a data acquisition and analysis program (Danish Myo Technology, Aarhus, Denmark).
The robust relaxation effect and low risk of toxicity of KE on airway smooth muscle indicates its promising prospects for development. To identify the active ingredients of KE, the KE was divided into three parts including EtOAc phase, n-BuOH phase and water phase using EtOAc and n-BuOH sequential extraction. Upon the airway smooth muscle rings reached a relative steady contraction state evoked by MCh, accumulated volume of these three phases was added to assess the relaxation capacity. […] On the other hand, 1 μL of EtOAc phase just relaxed the rings to 90%.
Their dose-responsive effect on relaxation of airway smooth muscle was measured. When the force evoked by acetylcholine reached a relatively steady state, kudinosides were added to the bath in cumulative concentrations (0.1 μM, 0.3 μM, 1 μM, 3 μM, 10 μM, 30 μM). […] When the concentration of kudinoside D increased to 10 μM, about 50% of the force was relaxed. Strikingly, upon treatment with 30 μM of kudinoside D, more than 80% of the force was relaxed (FIG. 5B). Similarly, 30 μM of kudinoside A also led to 80% inhibition of evoked force. Note that the relaxation effect of kudinosides was completely reversible, because the relaxed muscles restored response to MCh after washing off.

C[C@@H]1O[C@@H](O[C@H]2[C@H](O[C@H]3CC[C@@]4(C)C(CC[C@]5(C)C4C=CC4=C6[C@]7(CC[C@](C)(OC7=O)[C@@]6(C)O)CC[C@]45C)C3(C)C)OC[C@H](O)[C@@H]2O[C@@H]2O[C@H](CO)[C@@H](O)[C@H](O)[C@H]2O)[C@H](O)[C@H](O)[C@H]1O (stereo partly drawn) [Kudinoside D]
force relaxed at 10 μM (force evoked by acetylcholine, cumulative concentrations, 10 μM): about 50% | force relaxed / inhibition of evoked force at 30 μM (force evoked by acetylcholine, cumulative concentrations, 30 μM): more than 80% | relaxation of evoked force of airway smooth muscle / bronchial rings (in vitro, concentration not given): significantly relaxed bronchial rings in a dose-dependent manner
